Measurements reported in patent publication US20120283175A1, “ANTIBACTERIAL COMPOSITIONS” (Achaogen, Inc., priority 2009, published 2012).
Converted amounts (≈) assume the structure as drawn. “And” between values parts separate entries of the source, which are not always exact repeats. Equal values may be shown once. “Also recorded” adds a separate entry of the source. Read-outs that look alike come from different tables or passages of the source.

Columns and labels:
E. coli ATCC25922 = experiment: MIC by broth microdilution, wild type strain ATCC25922; type: cell-based
Experimental: (§1) Bacterial isolates were cultivated from −70° C. frozen stocks of the indicated strains by overnight passages at 35° C. in ambient air on Mueller-Hinton agar (Beckton Dickinson, Franklin Lakes, N.J.). Minimum Inhibitory Concentrations (MICs) were determined by the broth microdilution method in accordance with the Clinical and Laboratory Standards Institute (CLSI) guidelines. In brief, organism suspensions were adjusted to a 0.5 McFarland standard to yield a final inoculum between 3×10^5 and 7×10^5 colony-forming units (CFU)/mL. Drug dilutions and inocula were made in sterile, cation adjusted Mueller-Hinton Broth (Beckton Dickinson). An inoculum volume of 100 μL was added to wells containing 100 μL of broth with 2-fold serial dilutions of drug. All inoculated microdilution trays were incubated in ambient air at 35° C. for 18-24 hours. Following incubation, the lowest concentration of the drug that prevented visible growth (OD600 nm <0.05) was recorded as the MIC.

envA+ (D21) E. coli = experiment: MIC by broth microdilution, isogenic envA+ strain; type: cell-based
Experimental: as §1

envA1 (D22) E. coli = experiment: MIC by broth microdilution, isogenic envA1 mutant strain; type: cell-based; details: for MIC: Strain envA1 (D21)
Experimental: as §1

gram negative bacteria = experiment: Checkerboard synergy score at fractions of the antibacterial agent's MIC, with LpxCi-1, -2, -3; type: cell-based; parameters: scale not given here
Experimental: (§2) Partial or full inhibition of LpxC should compromise the outer membrane and thus allow these synergizing agents to enter the cells and exert an antibacterial effect at concentrations where cells untreated with an LpxC inhibitor are unaffected. As a first step, checkerboard synergy assays for a variety of antibacterial agents were perform with several LpxC inhibitors, on several species of gram negative bacteria.
as §1

[1] = system: P. aeruginosa (ATCC27853); details: for ΔLogCFU vs 24 hr / Log CFU Mean: 24 hr; for Log CFU Mean: n=5; for in vivo synergy with LpxC inhibitors: P. aeruginosa (ATCC27853), summary; for in vivo synergy with erythromycin: erythromycin 60 mg/kg
Description: (§3) The model was run essentially as described by Craig and others (see Gudmundsson et al., “Murine Thigh Infection Model,” Handbook of Animal Models of Infection, M. A. Sande and O. Zak, Eds.; London: Academic Press, 1999, pp 137-144). Briefly, mice were rendered neutropenic prior to infection with 2 doses of cyclophosphamide, and then infected intramuscularly in the thigh with inocula of 10^3-10^5 CFU of either K. pneumo. (ATCC43816) or P. aeruginosa (ATCC27853). Antibiotics or vehicle alone as a negative control were administered twice at 2 hrs and 14 hrs post-infection. The animals were kept neutropenic for the duration of the experiment in order to minimize the effect of white blood cells on the infection such that the microbiological readout measures the in vivo interaction of drugs and bacteria. At 24 hrs post-infection, thighs were harvested, homogenized, and plated to measure the number of CFUs surviving per thigh. Thighs from a subset of animals were also harvested 2 hrs post-infection to record the CFUs present just prior to the first antibiotic treatment (pre-treatment).
This table focuses on the sensitive part of the LpxCi-4 dose response curve (30 mg/kg) by examining the mean log CFU at 0 or 24 hours, as well as the log change in CFU at 24 hours relative to zero hours (“ΔLogCFU vs […]”). Data is given for animals treated with vehicle, LpxCi-4 at 30 mg/kg, a second agent alone at the indicated doses or the combination of LpxCi-4 at 30 mg/kg plus the second agent at the indicated dose. The standard errors for each measurement are also given (n=5 animals/group). By comparing the observed drop in CFU of the combination with the sum of the drop in CFU associated with each of the two agents given separately, one can determine whether the combination is, in fact, synergistic in vivo.

[2] = system: P. aeruginosa (ATCC27853); experiment: MIC on P. aeruginosa ATCC27853; type: cell-based; details: Pseudomonas aeruginosa, ATCC 27853 / ATCC 278534; on ATCC278534 as printed
Experimental: as §1
This table focuses on the sensitive part of the LpxCi-4 dose response curve (30 mg/kg) by examining the mean log CFU at 0 or 24 hours, as well as the log change in CFU at 24 hours relative to zero hours (“ΔLogCFU vs 24 hr”). Data is given for animals treated with vehicle, LpxCi-4 at 30 mg/kg, a second agent alone at the indicated doses or the combination of LpxCi-4 at 30 mg/kg plus the second agent at the indicated dose. […]

K. pneumo. (ATCC43816) = experiment: Neutropenic thigh in vivo efficacy model (mice); parameters: species or system Klebsiella pneumoniae; Static Dose, LpxC cmpd / Static Dose, LpxC in combination: unit not given here
Description: as §3

[3] = Pharmacokinetic studies of LpxCi-4 alone or in the presence of vancomycin; type: in vivo; details: for AUC / Cmax / Tmax / half-life: in vivo, 10 mg/kg
Experimental: This would result in a lower static dose for the LpxC inhibitor and apparent synergy. In order to address this, pharmacokinetic studies of LpxCi-4 either alone or in the presence of vancomycin at 220 mg/kg were performed. […] The half-life (HL_Lambda_z), time to maximum concentration (Tmax), maximal concentration (Cmax), and area under the concentration-time curve (AUC) for LpxCi-4 are provided.

Klebsiella pneumoniae = experiment: Checkerboard synergy assay with LpxCi-4; type: cell-based; details: combination with LpxCi-4
Description: (§4) One classic method for assessing synergy, referred to as the checkerboard assay, is used to predict the efficacy of antibacterial agents, and is described by Scribner et. al., (Antimicrobial Agents and Chemotherapy 21(6):939-943 (1982)) and in Goodman & Gilman (The Pharmacological Basis of Therapeutics, Sixth Edition, pp. 1097-1098 (1980)). The checkerboard assay involves serial two-fold dilutions of the antibiotics individually and in combination in broth, which is then inoculated with the microorganism to be tested. After incubation, the minimum inhibitory concentration (MIC) of each drug used individually and in combination is determined (N.B., the MIC is the lowest concentration of the drug that inhibits growth in the medium). Synergism is indicated by a decrease in the MIC of each drug when used in combination. Antagonism is indicated by an increase in the MIC of either or both drugs when used in combination. Alternate methods of assessing synergy are reviewed in Greco, et al., Pharmacological Reviews 47(2):[…] (1995), incorporated herein by reference in its entirety.
as §2, §1
(§5) Standard checkerboard assays were performed with a combination of the indicated agents and LpxCi-4. Table 2 provides the FICI calculated according to standard techniques.

Pseudomonas aeruginosa = experiment: Checkerboard synergy assay with LpxCi-4; type: cell-based; details: combination with LpxCi-4 (3936); Pseudomonas aeruginosa (ATCC27853 in text)
Description: as §4, §2, §1, §5

Yersinia enterocolitica = experiment: Checkerboard synergy assay with LpxCi-4; type: cell-based; details: combination with LpxCi-4
Description: as §4, §2, §1, §5

[4] = with LpxCi-1, antibacterial agent at 1/16 MIC
[5] = with LpxCi-1, antibacterial agent at 1/64 MIC
[6] = with LpxCi-1, antibacterial agent at ¼ MIC
[7] = with LpxCi-2, antibacterial agent at 1/16 MIC
[8] = with LpxCi-3, antibacterial agent at 1/16 MIC
[9] = with LpxCi-3, antibacterial agent at 1/64 MIC
[10] = with LpxCi-3, antibacterial agent at ¼ MIC
[11] = second block of Table 5, mg/kg/day b.i.d.: 3936 30, Eryth. 60, Dapto. 3, Oxacil. 100
[12] = strain 43816, combination agent Rifampin
[13] = first block of Table 5, mg/kg/day b.i.d.: 3936 30, Rif. 30, Azith. 50
[14] = strain 27853, combination agent Rifampin
[15] = strain 27853, combination agent Vanco
[16] = LpxCi-4 (10 mg/kg) + vancomycin (220 mg/kg)

CC[C@H]1OC(=O)[C@H](C)[C@@H](O[C@H]2C[C@@](C)(OC)[C@@H](O)[C@H](C)O2)[C@H](C)[C@@H](O[C@@H]2O[C@H](C)C[C@H](N(C)C)[C@H]2O)[C@](C)(O)C[C@@H](C)C(=O)[C@H](C)[C@@H](O)[C@]1(C)O [Erythromycin, erythromycin]
MIC (E. coli ATCC25922): 64 µg/mL (≈ 87.2 µM)
MIC (envA+ (D21) E. coli): 64 µg/mL (≈ 87.2 µM)
MIC (envA1 (D22) E. coli): 4 µg/mL (≈ 5.45 µM)
Synergy Score (gram negative bacteria; [4]): 0.17
Synergy Score (gram negative bacteria; [5]): 0.35
Synergy Score (gram negative bacteria; [6]): 0.36
Synergy Score (gram negative bacteria; [7]): 1.06
Synergy Score (gram negative bacteria; with LpxCi-2, antibacterial agent at 1/64 MIC): 1.02
Synergy Score (gram negative bacteria; [8]): 0.40
Synergy Score (gram negative bacteria; [9]): 0.35
Synergy Score (gram negative bacteria; [10]): 0.58
ΔLogCFU vs 24 hr [1, 11]: −0.21
Log CFU Mean [1, 11]: 7.43
in vivo synergy with LpxC inhibitors [1]: modest but potentially useful in vivo synergy
MIC [2]: > 16 µg/mL

CC(C)(N)[C@H](NC(=O)c1ccc(C#CC#CC2CC2)cc1)C(=O)NO [LpxCi-4, (S)—N-(3-amino-1-(hydroxyamino)-3-methyl-1-oxobutan-2-yl)-4-(cyclopropylbuta-1,3-diynyl)benzamide]
MIC (E. coli ATCC25922): 0.015 µg/mL (≈ 0.0442 µM)
MIC (envA+ (D21) E. coli): 0.015 µg/mL (≈ 0.0442 µM)
MIC (envA1 (D22) E. coli): ≦0.004
Fold decrease in MIC (envA+/envA1) (envA1 (D22) E. coli; envA+ vs envA1 E. coli): ≧4
in vivo synergy with rifampin (K. pneumo. (ATCC43816); bacterial strain ATCC43816): in vivo synergy
in vivo synergy with vancomycin (K. pneumo. (ATCC43816); bacterial strain ATCC43816): in vivo synergy
Static Dose, LpxC cmpd (K. pneumo. (ATCC43816); strain 43816, LpxC compound alone): 36 and 33
Fold Shift Static Dose (K. pneumo. (ATCC43816); [12]): 4x
Static Dose, LpxC in combination (K. pneumo. (ATCC43816); [12]): 9
Fold Shift Static Dose (K. pneumo. (ATCC43816); strain 43816, combination agent Vanco): 6.6x
Static Dose, LpxC in combination (K. pneumo. (ATCC43816); strain 43816, combination agent Vanco (440 mg/kg/day)): 5
shift in static dose (K. pneumo. (ATCC43816); with rifampin, K. pneumoniae ATCC43816): 4 fold
ΔLogCFU vs 24 hr [1, 13]: −1.57
Log CFU Mean [1, 13]: 6.17
ΔLogCFU vs 24 hr [1, 11]: −0.81
Log CFU Mean [1, 11]: 6.83
in vivo synergy with daptomycin ([1]; bacterial strain ATCC27853): does not exhibit in vivo synergy
in vivo synergy with rifampin ([1]; bacterial strain ATCC27853): in vivo synergy
in vivo synergy with vancomycin ([1]; bacterial strain ATCC27853): in vivo synergy
in vivo synergy with erythromycin ([1]; bacterial strain ATCC27853): modest in vivo synergy
in vivo synergy with erythromycin ([1]; bacterial strain ATCC27853, listed as LPxCi-4): only a very modest shift in the dose response curve
in vivo synergy with daptomycin ([1]; bacterial strain ATCC27853, listed as 3936): no measurable in vivo synergy
drop in CFU relative to vehicle ([1]; each agent at 30 mg/kg): 1.57 log
Static Dose, LpxC cmpd ([1]; strain 27853, LpxC compound alone): 60 and 42 and 50
Static Dose, LpxC in combination ([1]; strain 27853, combination agent Daptomycin): 50
Fold Shift Static Dose ([1]; strain 27853, combination agent Erythromycin): <1.5x
Static Dose, LpxC in combination ([1]; strain 27853, combination agent Erythromycin (60 mg/kg in text)): 40
Static Dose, LpxC in combination ([1]; strain 27853, combination agent Oxacillin): 50
Fold Shift Static Dose [1, 14]: 1.9x
Static Dose, LpxC in combination [1, 14]: 22
Fold Shift Static Dose [1, 15]: 2.4x
Static Dose, LpxC in combination [1, 15]: 25
shift in static dose ([1]; with rifampin, P. aeruginosa ATCC27853): 2 fold
AUC [3, 16]: 6870 ng·h/mL
Cmax [3, 16]: 2630 ng/mL
Tmax [3, 16]: 0.25 h
half-life [3, 16]: 3.27 h
AUC ([3]; LpxCi-4 (10 mg/kg) alone): 6030 ng·h/mL
Cmax ([3]; LpxCi-4 (10 mg/kg) alone): 2200 ng/mL
Tmax ([3]; LpxCi-4 (10 mg/kg) alone): 0.5 h
half-life ([3]; LpxCi-4 (10 mg/kg) alone): 2.63 h
PK / AUC of LpxCi-4 in the presence vs absence of vancomycin ([3]; vancomycin at 220 mg/kg, 220 mg/kg): not significantly affected; also recorded: essentially identical

CC[C@H]1OC(=O)[C@H](C)[C@@H](O[C@H]2C[C@@](C)(OC)[C@@H](O)[C@H](C)O2)[C@H](C)[C@@H](O[C@@H]2O[C@H](C)C[C@H](N(C)C)[C@H]2O)[C@](C)(O)C[C@@H](C)CN(C)[C@H](C)[C@@H](O)[C@]1(C)O [Azithromycin, azithromycin]
FICI index (Klebsiella pneumoniae): 0.14
FICI index (Pseudomonas aeruginosa): 0.31
FICI index (Yersinia enterocolitica): 0.09
Synergy Score (gram negative bacteria; [4]): 0.10
Synergy Score (gram negative bacteria; [5]): 0.13
Synergy Score (gram negative bacteria; [6]): 0.26
Synergy Score (gram negative bacteria; [7]): 1.06
Synergy Score (gram negative bacteria; with LpxCi-2, antibacterial agent at ¼ MIC): 0.58
Synergy Score (gram negative bacteria; [8]): 0.40
Synergy Score (gram negative bacteria; [9]): 1.02
Synergy Score (gram negative bacteria; [10]): 0.29
in vivo synergy with LpxC inhibitors [1]: modest but potentially useful in vivo synergy
MIC [2]: > 16 µg/mL
